According to US11285130B2, “Treatment of mitochondrial diseases” (Khondrion IP B.V., priority 2017, dated 2022):
Read-outs that look alike come from different tables or passages of the source.

Experiments:
[1] = tested on: primary human fibroblasts from patients with Leigh syndrome; assay: Oxidative stress-induced cell death (BSO) assay, Leigh patient fibroblasts; assay type: cell-based; details: Homo sapiens, in vitro fibroblast assays (Redox assay), fibroblast type not given, values match Leigh
Description: (§1) To determine the effective concentration of the compounds (the concentrations that protect patient cells against oxidative stress-induced cell death) the applicant established an assay using stressed primary human fibroblasts from patients with Leigh syndrome, MELAS or LHON diseases. Utilising the inherent oxidative stress of fibroblasts from patients with mitochondrial disease, their oxidative burden was further increased by depleting cellular glutathione with an inhibitor of glutathione synthesis, L-buthionine-(S,R)-sulfoximine (BSO). […] Cells were seeded at a density of 3000 cells/well in a 96-well format and incubated with increasing concentrations of compounds in combination with BSO (100 μM, Sigma-aldrich). One day after treatment, the cells were washed twice and stained with a solution of 5 μM calcein-AM (Life technologies C3100MP) during 25 min in 199 medium without phenol red (Life technologies, 11043-023) at room temperature. After 2 washes with PBS (Phosphate buffered saline) the plate was read on a fluorescence plate reader (Fluostar Omega, BMG labtech) and the percentage of cell viability determined as a function of fluorescence intensity.

[2] = tested on: primary human fibroblasts from patients with MELAS; assay: Oxidative stress-induced cell death (BSO) assay, MELAS patient fibroblasts; assay type: cell-based; details: Homo sapiens, Fibroblast; fibroblasts derived from MELAS patients, 100 μM BSO; unit as printed for KH176; read-out: EC50, protection from oxidative stress-induced cell death
Description: as §1

[3] = tested on: primary human fibroblasts from patients with LHON; assay: Oxidative stress-induced cell death (BSO) assay, LHON patient fibroblasts; assay type: cell-based; details: Homo sapiens, Fibroblast; fibroblasts derived from LHON patients, 100 μM BSO; read-out: EC50, protection from oxidative stress-induced cell death
Description: as §1

[4] = SAD study pharmacokinetic analysis; assay type: in vivo, human; details: for AUC(0-t) / Cmax / Tmax / AUC(0-inf) / half-life: male, human, plasma, oral; for AUC(0-t): read-out: AUClast (Geomean); for Cmax: read-out: Cmax (Geomean); for AUC(0-inf): read-out: AUC0-inf (Geomean)
Procedure: Dose escalation to the next dose level was done after evaluation of the safety and the first 24-hour pharmacokinetic results of the previous dose. […] Anticipated exposures at this starting dose were just below the Minimum Anticipated Biological Effect Level (MABEL). Placebo (an in taste and appearance matching oral liquid) was also administered orally on one occasion in the single-ascending dose part and b.i.d. for 7 Days in the MAD part. […] All samples were stored at <-70° C. until analysis. […] For mean value calculations, all values below the limit of quantification (LOQ) were set to zero. […] The non-compartmental pharmacokinetic analysis was performed using Phoenix, Version 6.3 (Pharsight Corporation, Mountain View, Calif., USA). […] The PK parameters were calculated on the basis of the actual blood sampling time points relative to dosing. Selected pharmacokinetic parameters (Cmax, tmax, t1/2, AUClast and AUC0-int) following single-dose administration and selected pharmacokinetic parameters Cmax, tmax, [NT], the accumulation factor (Racc) and time to reach steady state) following multiple dose administration were determined. In urine, the percentage of dose excreted in urine was determined for the single- and multiple-dose administration.

[5] = Phospholipidosis assessment in MAD study (urinary di-22:6-BMP, electron microscopy of peripheral leucocytes)
Procedure: Therefore, the presence of phospholipidosis was determined by the concentration of di-docosahexaenoyl (22:6)-bis(monoacylglycerol) phosphate (di-22:6-BMP) in a midstream urine sample and by electron microscopy of peripheral leucocytes at Day 1 and 7 in the MAD study (Pospischil A. et al, Exp. Toxicol Pathol 2010, 62:567-571).

[6] = Pharmacodynamic analysis of oxidized and reduced glutathione, MAD study; assay type: in vivo, human; details: Day 7, blood
Procedure: Blood samples for pharmacodynamic analyses were taken pre-dose and at 3, 6 and 24 h post dosing at Day 7 (MAD). All samples were stored in −80° C. until analysis. Quantification of oxidized and reduced glutathione was performed at York Bioanalytical solutions using a previously described validated method (Moore T et al, J Chromatogr B Analyt Technol Biomed Life Sci 2013, 929:51-55). Change from baseline in the concentrations of oxidized and reduced glutathione (GSH/GSSG) was calculated.

Protein binding = assay type: in vitro ADME
[7] = SAD study safety and tolerability (adverse events), healthy male volunteers
[8] = 10 mg, SAD, KH176 10 mg, fasted
[9] = 30 mg, SAD, KH176 30 mg, fasted
[10] = 100 mg, SAD, KH176 100 mg, fasted
[11] = 300 mg, SAD, KH176 300 mg, fasted
[12] = 800 mg, SAD, KH176 800 mg, fasted
[13] = 2000 mg, SAD, KH176 2000 mg, fasted

Cc1c(C)c2c(c(C)c1O)CC[C@@](C)(C(=O)N[C@@H]1CCCNC1)O2.Cl [KH176, (S)-6-hydroxy-2,5,7,8-tetramethyl-N-((R)-piperidin-3-yl)chroman-2-carboxamide hydrochloride]
EC50 ([1]; read-out: EC50): 0.182 µM
EC50 ([1]; read-out: EC50 expressed): ~0.06 µg/mL
EC50 [2]: 0.182 µM
EC50 [3]: 0.049 µM
AUC0-inf ratio (fed/fasted), 90% CI ([4]; 100 mg, fed versus fasted): 1.28 (90% Cl 1.12-1.45)
administered dose excreted in urine as unchanged KH176 ([4]; SAD): approximately 12%
AUC(0-t) [4, 8]: 75 ng·h/mL
Cmax [4, 8]: 12.9 ng/mL
Tmax ([4]; 10 mg, SAD, KH176 10 mg, fasted, read-out: tmax* (median)): 1.25 h
AUC(0-inf) [4, 9]: 474 ng·h/mL
AUC(0-t) [4, 9]: 389 ng·h/mL
Cmax [4, 9]: 56.2 ng/mL
half-life ([4]; 30 mg, SAD, KH176 30 mg, fasted, read-out: t1/2 (Geomean) (converted)): 10.3 h
Tmax ([4]; 30 mg, SAD, KH176 30 mg, fasted, read-out: tmax* (median)): 1.25 h
AUC(0-inf) [4, 10]: 1540 ng·h/mL
AUC(0-t) [4, 10]: 1310 ng·h/mL
Cmax [4, 10]: 167 ng/mL
half-life ([4]; 100 mg, SAD, KH176 100 mg, fasted, read-out: t1/2 (Geomean) (converted)): 9.1 h
Tmax ([4]; 100 mg, SAD, KH176 100 mg, fasted, read-out: tmax* (median)): 1 h
AUC(0-inf) ([4]; 100 mg, SAD, KH176 100 mg, fed): 1970 ng·h/mL
AUC(0-t) ([4]; 100 mg, SAD, KH176 100 mg, fed): 1650 ng·h/mL
Cmax ([4]; 100 mg, SAD, KH176 100 mg, fed): 165 ng/mL
half-life ([4]; 100 mg, SAD, KH176 100 mg, fed, read-out: t1/2 (Geomean) (converted)): 9.09 h
Tmax ([4]; 100 mg, SAD, KH176 100 mg, fed, read-out: tmax* (median)): 2.5 h
Tmax ([4]; 100 mg, fasted condition (100 mg), read-out: median tmax): ~1 h
Tmax ([4]; 100 mg, fed condition (100 mg, high calorie/high fat breakfast), read-out: median tmax): 2.5 h
AUC(0-inf) [4, 11]: 7500 ng·h/mL
AUC(0-t) [4, 11]: 6320 ng·h/mL
Cmax [4, 11]: 766 ng/mL
half-life ([4]; 300 mg, SAD, KH176 300 mg, fasted, read-out: t1/2 (Geomean) (converted)): 9.64 h
Tmax ([4]; 300 mg, SAD, KH176 300 mg, fasted, read-out: tmax* (median)): 0.992 h
AUC(0-inf) [4, 12]: 25800 ng·h/mL
AUC(0-t) [4, 12]: 21000 ng·h/mL
Cmax [4, 12]: 2170 ng/mL
half-life ([4]; 800 mg, SAD, KH176 800 mg, fasted, read-out: t1/2 (Geomean) (converted)): 9.8 h
Tmax ([4]; 800 mg, SAD, KH176 800 mg, fasted, read-out: tmax* (median)): 1.5 h
AUC(0-inf) [4, 13]: 79100 ng·h/mL
AUC(0-t) [4, 13]: 61200 ng·h/mL
Cmax [4, 13]: 5990 ng/mL
half-life ([4]; 2000 mg, SAD, KH176 2000 mg, fasted, read-out: t1/2 (Geomean) (converted)): 11.5 h
Tmax ([4]; 2000 mg, SAD, KH176 2000 mg, fasted, read-out: tmax* (median)): 0.75 h
Tmax ([4]; SAD, across doses, read-out: median tmax): 0.75 to 1.5 h
half-life ([4]; SAD, approximate, across dose groups, read-out: t1/2 (converted)): ~10 h
Tmax ([4]; single- and multiple-dose administration, read-out: median tmax): 0.75 to 2 h
di-22:6-BMP in urine, change from Day 1 to Day 7 ([5]; MAD group III (100 mg BID)): 0.74-2.50 ng/mg creatinine
di-22:6-BMP in urine, change from Day 1 to Day 7 ([5]; MAD group IV (200 mg BID)): −1.44-1.32 ng/mg creatinine
di-22:6-BMP in urine, change from Day 1 to Day 7 ([5]; MAD group V (400 mg BID)): −0.69-1.46 ng/mg creatinine
prevalence of phospholipidosis in granulocytes or monocytes by electron microscopy ([5]; in vivo): No increased prevalence
GSH/GSSG ratio, change from baseline [6]: No significant alterations
fraction unbound (Protein binding): 0.4 to 0.5
TEAE: Influenza like illness (subjects) ([7]; SAD 10 mg (N = 4)): 0 n (%)
TEAE: Influenza like illness (subjects) ([7]; SAD 30 mg (N = 4)): 0 n (%)
TEAE: Influenza like illness (subjects) ([7]; SAD 100 mg (N = 4)): 0 n (%)
TEAE: Influenza like illness (subjects) ([7]; SAD 100 mg + Food (N = 4)): 0 n (%)
TEAE: Influenza like illness (subjects) ([7]; SAD 300 mg (N = 4)): 0 n (%)
TEAE: Influenza like illness (subjects) ([7]; SAD 800 mg (N = 6)): 0 n (%)
TEAE: Influenza like illness (subjects) ([7]; SAD 2000 mg (N = 4)): 0 n (%)
